Values of other authors, collected in publication PMC11088877, “AMP-activated protein kinase can be allosterically activated by ADP but AMP remains the key activating ligand” (Biochemical Journal, 2024).

Target: bacterially expressed AMPK heterotrimers (γ subunit CBS sites)
Conditions: in the presence of Mg2+ and staurosporine; read-out: estimated Kd at the CBS3 site; cited from earlier work

Nc1ncnc2c1ncn2[C@@H]1O[C@H](COP(=O)(O)OP(=O)(O)OP(=O)(O)O)[C@@H](O)[C@H]1O [ATP]
Kd: 100 to 500 µM
